According to patent US20020151534A1, “Antithrombotic compounds” (priority 2001, published 2002):

What follows are compounds tested against T1, human factor Xa (Homo sapiens, UniProt P00742) (assay: Inhibition of factor Xa, enzyme-kinetic measurement with chromogenic substrate). Settings: substrate Chromozym X 200 μMol/l, pNA release at 405 nm, pH 8.0, 37° C.
T1 construct: released from the colourless chromogenic substrate by human factor Xa; purchased Roche
Type: biochemical
Protocol: Enzyme-kinetic measurement with chromogenic substrate. The quantity of anp-nitroaniline (pNA) released from the colourless chromogenic substrate by human factor Xa is determined photometrically at 405 nm. It is proportional to the activity of the enzyme used. The inhibition of the enzyme activity by the test substance I (in relation to the solvent control) is determined at various concentrations of test substance and from this the IC50 is calculated, as the concentration which inhibits the factor Xa used by 50%.
Tris(hydroxymethyl)-aminomethane buffer (100 mmol) and sodium chloride (150 mMol), pH 8.0
Factor Xa (Roche), spec. activity: 10 U/0.5 ml, final concentration: 0.175 U/ml for each reaction mixture
Substrate Chromozym X (Roche), final concentration: 200 μMol/l for each reaction mixture
10 μl of a 23.5-times concentrated starting solution of the test substance or solvent (control), 175 μl of tris(hydroxymethyl)-aminomethane buffer and 25 μl of a 1.65 U/ml Factor Xa working solution are incubated for 10 minutes at 37° C. After the addition of 25 μl of Chromozym X working solution ([…]) the sample is measured in a photometer (SpectraMax 250) at 405 nm for 150 seconds at 37° C.
1. Determining the maximum increase (deltaOD/minutes) over 3 measuring points.
2. Determining the % inhibition based on the solvent control.
3. Plotting a dosage/activity curve (% inhibition vs substance concentration).
4. Determining the IC50 by interpolating the X value (substance concentration) of the dosage/activity curve at Y=50% inhibition.

T1 sequence (P00742 235-488 limits assumed): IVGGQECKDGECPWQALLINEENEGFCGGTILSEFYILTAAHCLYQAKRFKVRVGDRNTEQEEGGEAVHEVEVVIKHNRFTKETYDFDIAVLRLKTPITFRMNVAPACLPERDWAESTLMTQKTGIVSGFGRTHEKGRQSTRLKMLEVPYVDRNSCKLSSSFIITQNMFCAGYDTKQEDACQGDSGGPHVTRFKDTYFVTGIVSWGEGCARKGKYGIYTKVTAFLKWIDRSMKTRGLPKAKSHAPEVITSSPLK
T1 sequence (P00742 41-179 partner limits assumed): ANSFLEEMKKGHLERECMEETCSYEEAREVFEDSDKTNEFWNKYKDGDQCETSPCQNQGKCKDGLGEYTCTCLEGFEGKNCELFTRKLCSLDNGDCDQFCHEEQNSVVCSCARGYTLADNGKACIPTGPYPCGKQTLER

IC50 [µM] | SMILES
0.084 | Cc1cc(NCCc2cc(C(=N)N)ccc2O)ccc1C(=O)N1CCCC1 [(1)]
0.014 | Cc1cc(C(=O)NCc2cc(C(=N)N)ccc2O)ccc1C(=O)N1CCCC1 [(2)]
0.075 | CCOC(=O)CCC(=O)N(c1ccc(C(=O)NCc2cc(C(=N)N)ccc2O)cc1C)C1CCCC1 [(3)]
0.01 | N=C(N)c1ccc(O)c(CNC(=O)c2ccc(C(=O)N3CCCC3)c(Cl)c2)c1 [(4)]
0.031 | Cc1cc(C(=O)NC(CC(=O)O)c2cccc(C(=N)N)c2)ccc1C(=O)N1CCCC1 (centres unmarked) [(5)]
